Assay results taken from patent US7919624B2, “VR1 vanilloid receptor antagonists with a iononic substructure” (Pharmeste S.R.L., priority 2006, dated 2011).

Experiments:
[1] = target: T1, TRPV1 expressing neurons (rat trigeminal neurons) (Rattus norvegicus, UniProt O35433); test: Ca2+ fluorescence measurements in cultured rat trigeminal ganglia; assay type: cell-based; conditions: 0.1 μM capsaicin, mean and 95% fiducial limits, read-out: IC50 inhibiting capsaicin-evoked [Ca2+]i mobilization
T1 construct: Two-days old Newborn rats were terminally anaesthetized and decapitated; Trigeminal ganglia were removed; endogenous in cells; host or cells: primary cultured trigeminal ganglion neurons from newborn Sprague-Dawley rats
Protocol: Ca^2+ Fluorescence Measurements in Cultured rat Trigeminal Ganglia
Two-days old Newborn rats were terminally anaesthetized and decapitated. Trigeminal ganglia were removed and rapidly placed in a cold phosphate buffered solution (PBS) before being transferred to collagenase/dispase (1 mg/ml dissolved in Ca^2+- Mg^2+-free PBS) for 35 min at 37° C.^7 After the enzymatic treatment the ganglia were rinsed three times with Ca^2+- Mg^2+-free PBS and then placed in 2 ml of cold DMEM supplemented with 10% fetal bovine serum (FBS, heat inactivated), 2 mM L-glutamine, 100 μ/ml penicillin and 100 μg/ml streptomycin. The ganglia were dissociated into single cells by several passages through a series of syringe needles (23G down to 25G). Finally, the medium and the ganglia cells were sieved through a 40 μm filter to remove debris and topped up with 8 ml of DMEM medium and centrifuged (200×g for 5 min). The final cell pellet was re-suspended in DMEM medium [supplemented with 100 ng/ml mouse Nerve Growth Factor (mouse-NGF-7S) and cytosine-β-D-arabinofuranoside free base (ARA-C) 2.5 μM]. Cells were plated on poly-L-lysine-(8.3 μM) and laminin-(5 μM) coated 25 mm glass cover slips and kept for 5 to 8 days at 37° C. in a humidified incubator gassed with 5% CO2 and air. Plated neurons were loaded with Fura-2-AM-ester (3 μM) in Ca^2+ buffer solution of the following composition (mM): CaCl2 1.4, KCl 5.4, MgSO4 0.4, NaCl 135, D-glucose 5, HEPES 10 with BSA (0.1%), at pH 7.4, for 40 min at 37° C. The plated neurons were then washed twice with the Ca^2+ buffer solution and transferred to a chamber on the stage of Nikon eclipse TE300 microscope. Fura-2-AM-ester was excited at […] to indicate relative [Ca^2+]i changes by the F340/F380 ratio recorded with a dynamic image analysis system (Laboratory Automation 2.0, RCS, Florence, Italy). After transferring the plated neurons to the chamber, they were allowed (at least 10 min) to attain a stable fluorescence before beginning the experiment. A calibration curve was performed using buffer containing Fura-2-AM-ester and determinant concentrations of free Ca^2+.
The results are expressed as mean and 95% fiducial limits.

[2] = target: T2, TRPV1 expressed in rat spinal cord (Rattus norvegicus, UniProt O35433); test: Radioligand binding assay, [3H]-RTX, rat spinal cord membranes; conditions: 37° C. 60 min, range in brackets; for Ki: [3H]RTX 0.4 nM, read-out: Ki value, competition binding of [3H]-RTX
T2 construct: the spinal cord was removed and disrupted using a Polytron tissue homogenizer; from tissue; host or cells: spinal cord membranes of male Sprague-Dawley rats
Protocol: Radioligand Binding Assay
Male Sprague-Dawley rats with body weight between 250 and 350 g at the time for testing were used. For binding assays rats were sacrificed by decapitation under anesthesia and the spinal cord was removed and disrupted using a Polytron tissue homogenizer in ice cold buffer containing 5 mM KCl, 5.8 mM NaCl, 0.75 mM CaCl2, 2 mM MgCl2, 320 mM sucrose, 10 mM Hepes, pH 8.6.^5 The homogenized tissue was centrifuged at 1000×g for 10 min at 4° C. and the supernatant was centrifuged again at 35000×g for 30 min at 4° C. (Beckman Avanti J25). The pellet was resuspended in the same buffer described above and used in binding experiments. In saturation experiments, 150 μg protein/sample from membrane suspensions were incubated with [^3H]-resiniferatoxin ([^3H]-RTX) (0.003-3 nM) in the assay buffer containing 0.25 mg/ml fatty acid-free bovine serum albumin at 37° C. for 60 min. In competition experiments, the membranes were incubated at 37° C. for 60 min with [^3H]RTX (0.4 nM) and increasing concentrations of the examined compounds in the range from 0.1 nM to 3 μM. Non-specific binding was defined in the presence of 1 μM RTX. After incubation, the reaction mixture was cooled at 0° C. and incubated with bovine α1-acid glycoprotein (200 μg per tube) for 15 min to reduce non-specific RTX binding. Membrane-bound RTX was separated from free RTX through centrifugation of the samples at 18500×g for 15 min. The tip of the microcentrifuge tube containing the pellet was cut off and radioactivity was determined by scintillation counting (Packard 2500 TR). Protein concentration was determined according to a Bio-Rad method with bovine serum albumin as reference standard (Bradford, 1976). Saturation and competition studies were analysed with the program Ligand.^6

[3] = tested on: capsaicin-induced tactile allodynia; test: Capsaicin-induced secondary allodynia in rat; assay type: in vivo; conditions: 10 mg/kg orally 2 hours prior to capsaicin (20 nmols/50 μl/paw), 90 min after capsaicin challenge
Protocol: Capsaicin-induced Secondary Allodynia in Rat
Capsaicin (20 nmols/50 μl/paw) was injected in the plantar surface of the glabrous skin of the right paw of rats anesthetized with diethyl ether (Chaplan et al., 1994). Compound Id was orally administered (10 mg/kg) 2 hours prior to capsaicin injection. Tactile allodynia was evaluated 90 min after capsaicin challenge.

T1 sequence (O35433 whole entry): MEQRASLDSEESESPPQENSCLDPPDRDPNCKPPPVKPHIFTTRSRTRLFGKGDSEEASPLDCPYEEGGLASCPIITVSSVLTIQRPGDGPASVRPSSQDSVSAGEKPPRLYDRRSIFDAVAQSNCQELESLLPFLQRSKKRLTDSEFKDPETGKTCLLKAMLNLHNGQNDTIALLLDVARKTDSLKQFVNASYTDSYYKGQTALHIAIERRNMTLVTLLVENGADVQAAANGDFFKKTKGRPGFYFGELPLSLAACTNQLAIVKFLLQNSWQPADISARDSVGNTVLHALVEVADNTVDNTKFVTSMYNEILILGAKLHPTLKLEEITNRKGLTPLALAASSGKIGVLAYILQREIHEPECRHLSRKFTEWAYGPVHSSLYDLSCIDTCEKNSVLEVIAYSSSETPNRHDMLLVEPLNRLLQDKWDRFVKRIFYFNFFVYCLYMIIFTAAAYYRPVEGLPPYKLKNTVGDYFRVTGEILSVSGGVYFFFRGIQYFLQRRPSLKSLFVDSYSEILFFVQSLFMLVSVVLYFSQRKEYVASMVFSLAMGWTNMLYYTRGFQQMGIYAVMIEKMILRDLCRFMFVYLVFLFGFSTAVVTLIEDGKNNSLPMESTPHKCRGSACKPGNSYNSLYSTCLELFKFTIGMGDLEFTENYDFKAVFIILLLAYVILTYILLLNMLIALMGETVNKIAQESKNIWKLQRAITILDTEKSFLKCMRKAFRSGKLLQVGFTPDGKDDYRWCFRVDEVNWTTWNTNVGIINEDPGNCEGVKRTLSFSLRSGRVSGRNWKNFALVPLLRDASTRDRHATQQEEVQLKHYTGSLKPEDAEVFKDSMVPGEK
T2 sequence (O35433 whole entry): as above

| SMILES | IC50 [1] | Ki [2] | Kd ([2]; [3H]-RTX 0.003-3 nM, read-out: KD value, saturation curve of [3H]-RTX) | preventive effect against the pro-allodinic effect of capsaicin [3] |
| --- | --- | --- | --- | --- |
| CC1=C(/C=C/C(=O)Nc2cccc3cnccc23)C(C)(C)CCC1Oc1ccc(F)cc1 (stereo not shown) [Ie, (2E)-3-(3-(4-fluorophenoxy)-2,6,6-trimethylcyclohex-1-enyl)-N-(isoquinolin-5-yl)acrylamide] | 5.25 nM | 14.8 nM |  |  |
| C=C(C)[C@]12C[C@@H](C)[C@@]34O[C@](Cc5ccccc5)(O[C@@H]1[C@@H]3C=C(COC(=O)Cc1ccc(O)c(OC)c1)C[C@]1(O)C(=O)C(C)=C[C@@H]41)O2 [[^3H]-RTX, [^3H]-resiniferatoxin, reference compound] |  |  | 0.21 nM |  |
| CC1=C(/C=C/C(=O)Nc2cccc3cnccc23)C(C)(C)CCC1Oc1ccc(Cl)cc1 (stereo not shown) [Compound Id, (2E)-3-(3-(4-chlorophenoxy)-2,6,6-trimethylcyclohex-1-enyl)-N-(isoquinolin-5-yl)acrylamide] | 18.2 nM | 27 nM |  | 54% |
| CC1=C(/C=C/C(=O)Nc2cccc3cnccc23)C(C)(C)CCC1Oc1ccc(F)c(F)c1 (stereo not shown) [Ig, (2E)-3-(3-(3,4-difluorophenoxy)-2,6,6-trimethylcyclohex-1-enyl)-N-(isoquinolin-5-yl)acrylamide] | 0.65 nM | 10.3 nM |  |  |

Continued, in another order:

| IC50 [1] | Ki [2] | SMILES | Kd ([2]; [3H]-RTX 0.003-3 nM, read-out: KD value, saturation curve of [3H]-RTX) | preventive effect against the pro-allodinic effect of capsaicin [3] |
| --- | --- | --- | --- | --- |
| 28.4 nM | 26.2 nM | COC1CCC(C)(C)C(/C=C/C(=O)Nc2cccc3cnccc23)=C1C (stereo not shown) [Ib, (2E)-N-(isoquinolin-5-yl)-3-(3-methoxy-2,6,6-trimethylcyclohex-1-enyl)acrylamide] |  |  |
| 44 nM | 66 nM | CC1=C(/C=C/C(=O)Nc2cccc3cnccc23)C(C)(C)CCC1 [Ia, (2E)-N-(isoquinolin-5-yl)-3-(2,6,6-trimethylcyclohex-1-enyl)acrylamide] |  |  |
| 2.12 nM | 4.93 nM | CC1=C(/C=C/C(=O)Nc2cccc3cnccc23)C(C)(C)CCC1Oc1ccccc1 (stereo not shown) [Ic, (2E)-N-(isoquinolin-5-yl)-3-(2,6,6-trimethyl-3-phenoxycyclohex-1-enyl)acrylamide] |  |  |
| 0.38 nM | 8.14 nM | CC1=C(/C=C/C(=O)Nc2cccc3cnccc23)C(C)(C)CCC1Oc1cccc(F)c1 (stereo not shown) [If, (2E)-3-(3-(3-fluorophenoxy)-2,6,6-trimethylcyclohex-1-enyl)-N-(isoquinolin-5-yl)acrylamide] |  |  |
